# Values quoted from earlier work in patent US20240254438A1, “MULTI-REGIONAL HUMAN NEURAL CIRCUITS IN ASSEMBLOIDS DERIVED FROM PLURIPOTENT STEM CELLS” (The Board of Trustees of the Leland Stanford Junior …, priority 2021, published 2024).
# Key:
# [1] = target: element-binding protein (CBP) (Homo sapiens, UniProt Q92793); conditions: binds to element-binding protein (CBP)
# [2] = tested on: Wnt processing and secretion; conditions: cell-free assay
# PORCN [3] = tested on: PORCN
# Wnt signaling = conditions: TM3 cells
# Smo heptahelical domain = Smo heptahelical domain (Homo sapiens, UniProt Q99835)
# Smo heptahelical domain, sequence (Q99835 28-787): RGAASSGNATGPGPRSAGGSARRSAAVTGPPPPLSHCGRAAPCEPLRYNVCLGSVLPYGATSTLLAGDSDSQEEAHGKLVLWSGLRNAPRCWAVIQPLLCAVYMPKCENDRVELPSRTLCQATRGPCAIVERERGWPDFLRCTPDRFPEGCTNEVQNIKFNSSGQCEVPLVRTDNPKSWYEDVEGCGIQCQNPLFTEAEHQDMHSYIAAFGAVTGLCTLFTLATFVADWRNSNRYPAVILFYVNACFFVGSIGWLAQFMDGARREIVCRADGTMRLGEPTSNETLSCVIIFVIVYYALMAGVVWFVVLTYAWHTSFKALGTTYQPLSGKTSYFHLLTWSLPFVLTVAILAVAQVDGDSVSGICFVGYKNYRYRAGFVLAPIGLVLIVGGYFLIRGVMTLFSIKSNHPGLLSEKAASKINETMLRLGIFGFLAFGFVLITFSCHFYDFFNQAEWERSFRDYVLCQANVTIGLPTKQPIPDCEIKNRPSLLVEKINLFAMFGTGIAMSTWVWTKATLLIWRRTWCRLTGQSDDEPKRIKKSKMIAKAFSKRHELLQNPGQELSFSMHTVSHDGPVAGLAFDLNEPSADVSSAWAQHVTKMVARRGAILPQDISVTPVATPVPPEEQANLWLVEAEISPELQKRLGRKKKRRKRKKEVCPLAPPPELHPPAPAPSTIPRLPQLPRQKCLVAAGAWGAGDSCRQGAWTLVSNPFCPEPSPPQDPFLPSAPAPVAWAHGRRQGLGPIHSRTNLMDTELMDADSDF
# TNKS2 = target: T1, TNKS2 (Homo sapiens, UniProt Q9H2K2)
# T1 sequence (Q9H2K2 1-1166): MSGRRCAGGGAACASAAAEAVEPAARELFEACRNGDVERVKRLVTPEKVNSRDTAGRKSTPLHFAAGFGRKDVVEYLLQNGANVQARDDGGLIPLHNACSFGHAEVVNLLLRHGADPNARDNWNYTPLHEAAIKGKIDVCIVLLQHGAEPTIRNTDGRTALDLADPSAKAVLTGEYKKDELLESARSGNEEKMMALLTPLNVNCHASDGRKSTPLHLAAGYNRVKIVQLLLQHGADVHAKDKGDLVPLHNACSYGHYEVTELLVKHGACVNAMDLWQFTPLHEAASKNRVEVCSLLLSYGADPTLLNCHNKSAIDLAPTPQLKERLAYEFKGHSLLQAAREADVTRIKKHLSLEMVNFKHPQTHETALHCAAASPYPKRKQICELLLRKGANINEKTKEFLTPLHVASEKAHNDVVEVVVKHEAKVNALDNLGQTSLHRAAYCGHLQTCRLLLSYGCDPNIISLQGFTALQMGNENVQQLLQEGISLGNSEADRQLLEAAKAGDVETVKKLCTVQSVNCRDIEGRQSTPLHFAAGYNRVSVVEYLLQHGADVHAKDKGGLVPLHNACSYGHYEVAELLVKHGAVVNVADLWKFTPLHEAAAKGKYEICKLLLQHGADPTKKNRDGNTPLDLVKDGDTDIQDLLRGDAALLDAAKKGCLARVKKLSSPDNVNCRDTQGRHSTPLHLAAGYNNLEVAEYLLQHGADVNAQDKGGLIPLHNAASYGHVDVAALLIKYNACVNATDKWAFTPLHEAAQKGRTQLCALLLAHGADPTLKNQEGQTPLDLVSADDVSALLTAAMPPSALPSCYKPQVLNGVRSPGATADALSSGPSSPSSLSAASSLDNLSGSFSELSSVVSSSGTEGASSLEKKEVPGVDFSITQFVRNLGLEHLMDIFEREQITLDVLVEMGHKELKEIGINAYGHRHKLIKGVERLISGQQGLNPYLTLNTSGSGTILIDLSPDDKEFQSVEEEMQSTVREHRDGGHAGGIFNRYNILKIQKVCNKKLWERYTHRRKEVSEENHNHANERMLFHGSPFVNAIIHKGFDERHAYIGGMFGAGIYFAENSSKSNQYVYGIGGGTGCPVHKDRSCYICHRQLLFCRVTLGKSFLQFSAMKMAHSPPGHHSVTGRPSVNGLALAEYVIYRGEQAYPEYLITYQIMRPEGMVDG
# PORCN [4] = conditions: HEK293 cells, Wnt3A-mediated TCF luciferase
# element-binding protein (CBP), sequence (Q92793 whole entry): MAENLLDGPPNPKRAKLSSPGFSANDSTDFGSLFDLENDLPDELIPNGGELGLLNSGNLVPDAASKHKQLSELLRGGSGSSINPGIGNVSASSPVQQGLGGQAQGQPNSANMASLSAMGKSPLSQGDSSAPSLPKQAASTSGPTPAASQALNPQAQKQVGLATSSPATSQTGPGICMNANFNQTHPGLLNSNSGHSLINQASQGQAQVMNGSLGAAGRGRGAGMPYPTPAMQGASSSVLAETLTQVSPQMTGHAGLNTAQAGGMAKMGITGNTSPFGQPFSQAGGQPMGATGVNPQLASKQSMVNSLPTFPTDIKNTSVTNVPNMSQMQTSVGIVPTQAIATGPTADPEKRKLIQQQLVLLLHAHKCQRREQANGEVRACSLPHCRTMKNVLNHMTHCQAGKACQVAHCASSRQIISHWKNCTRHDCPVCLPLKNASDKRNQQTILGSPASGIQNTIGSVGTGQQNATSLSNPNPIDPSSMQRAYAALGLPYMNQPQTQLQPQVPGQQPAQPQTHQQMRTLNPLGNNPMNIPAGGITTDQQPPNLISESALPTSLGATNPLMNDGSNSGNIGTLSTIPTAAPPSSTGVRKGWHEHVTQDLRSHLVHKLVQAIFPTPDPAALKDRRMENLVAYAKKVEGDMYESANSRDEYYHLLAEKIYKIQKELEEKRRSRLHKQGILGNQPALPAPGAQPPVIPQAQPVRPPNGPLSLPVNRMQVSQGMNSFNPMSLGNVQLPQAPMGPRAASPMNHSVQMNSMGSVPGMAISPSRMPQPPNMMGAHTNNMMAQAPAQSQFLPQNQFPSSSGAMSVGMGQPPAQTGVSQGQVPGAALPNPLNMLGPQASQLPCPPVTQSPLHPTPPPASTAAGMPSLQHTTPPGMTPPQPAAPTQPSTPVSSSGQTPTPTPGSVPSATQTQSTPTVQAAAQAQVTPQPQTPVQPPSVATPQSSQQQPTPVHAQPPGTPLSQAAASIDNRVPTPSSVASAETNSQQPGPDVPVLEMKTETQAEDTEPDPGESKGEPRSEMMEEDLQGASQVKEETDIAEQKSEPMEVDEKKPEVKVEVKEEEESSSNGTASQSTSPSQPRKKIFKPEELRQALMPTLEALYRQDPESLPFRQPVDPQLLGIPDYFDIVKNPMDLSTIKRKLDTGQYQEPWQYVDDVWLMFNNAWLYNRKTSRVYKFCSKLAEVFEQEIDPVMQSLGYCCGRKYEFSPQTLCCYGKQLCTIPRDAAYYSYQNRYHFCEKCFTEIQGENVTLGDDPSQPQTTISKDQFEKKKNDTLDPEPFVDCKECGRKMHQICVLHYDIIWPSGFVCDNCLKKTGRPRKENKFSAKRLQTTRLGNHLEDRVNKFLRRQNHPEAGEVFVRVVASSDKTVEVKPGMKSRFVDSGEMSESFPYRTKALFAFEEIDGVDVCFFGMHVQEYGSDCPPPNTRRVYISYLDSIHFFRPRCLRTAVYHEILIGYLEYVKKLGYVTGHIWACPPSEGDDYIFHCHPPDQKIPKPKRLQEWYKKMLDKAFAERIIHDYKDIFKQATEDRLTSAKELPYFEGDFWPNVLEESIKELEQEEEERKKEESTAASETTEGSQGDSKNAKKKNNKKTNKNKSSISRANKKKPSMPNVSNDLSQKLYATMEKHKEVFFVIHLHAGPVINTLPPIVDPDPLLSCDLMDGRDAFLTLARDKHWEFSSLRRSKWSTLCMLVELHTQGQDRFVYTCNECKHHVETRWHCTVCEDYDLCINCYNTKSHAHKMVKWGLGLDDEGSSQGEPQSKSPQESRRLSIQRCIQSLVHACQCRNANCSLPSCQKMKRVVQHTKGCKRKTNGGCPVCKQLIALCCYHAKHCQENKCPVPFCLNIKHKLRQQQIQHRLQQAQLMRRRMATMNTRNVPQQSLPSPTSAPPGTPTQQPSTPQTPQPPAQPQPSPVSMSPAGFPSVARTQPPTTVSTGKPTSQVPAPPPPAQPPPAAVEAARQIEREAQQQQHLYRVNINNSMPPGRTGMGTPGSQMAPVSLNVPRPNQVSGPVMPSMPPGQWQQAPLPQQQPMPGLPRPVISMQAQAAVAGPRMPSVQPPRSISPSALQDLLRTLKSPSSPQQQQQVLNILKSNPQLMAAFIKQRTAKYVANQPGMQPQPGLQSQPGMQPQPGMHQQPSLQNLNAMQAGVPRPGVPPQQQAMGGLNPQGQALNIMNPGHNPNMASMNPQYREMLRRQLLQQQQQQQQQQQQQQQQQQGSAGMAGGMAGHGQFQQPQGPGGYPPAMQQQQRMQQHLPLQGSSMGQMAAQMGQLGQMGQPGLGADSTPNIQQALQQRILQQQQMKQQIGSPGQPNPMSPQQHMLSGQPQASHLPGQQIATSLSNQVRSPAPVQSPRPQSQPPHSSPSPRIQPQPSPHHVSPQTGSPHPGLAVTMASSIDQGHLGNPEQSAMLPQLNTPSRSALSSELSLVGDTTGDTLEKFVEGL
smiles,measurement,setting,value
O=C1[C@H](Cc2ccc(O)cc2)N2C(=O)CCN(C(=O)NCc3ccccc3)[C@H]2CN1Cc1cccc2ccccc12 [ICG-001],IC50,[1],3000 nM
Cc1ccc2nc(NC(=O)CSc3nc4c(c(=O)n3-c3ccccc3)SCC4)sc2c1 [IWP-2],IC50,[2],27 nM
O=C(CSc1nc2c(c(=O)n1-c1ccccc1)SCC2)Nc1ccc(-c2ccccc2)cn1 [IWP-L6],EC50,PORCN [3],0.5 nM
Cc1cc(-c2ncc(CC(=O)Nc3ccc(-c4cnccn4)cn3)cc2C)ccn1 [LGK-974],IC50,Wnt signaling,0.4 nM
CNC1CCC(N(Cc2cccc(-c3ccncc3)c2)C(=O)c2sc3ccccc3c2Cl)CC1 (stereo not shown) [SAG],Kd,Smo heptahelical domain,59 nM
COc1ccc(-n2c(SCCCN3C(=O)c4cccc5cccc(c45)C3=O)nnc2-c2ccncc2)cc1 [WIKI4],IC50,TNKS2,15 nM
Cc1cc(-c2ccc(CC(=O)Nc3ccc(-c4cccnc4)cc3)cc2)ccn1 [Wnt-C59],IC50,PORCN [4],0.074 nM
